# Assays:
# [1] = test system: biofilms of Aggregatibacter actinomycetemcomitans grown on HA; experiment: Aa biofilms grown on HA; type: cell-based
# [2] = test system: S. aureus strain ATCC-6538 (MSSA) and clinical MRSA strain MR4-CIPS; experiment: Time-kill assay (CLSI); type: cell-based, Staphylococcus aureus; details: for time-kill profile (in words): 1× and ½× MIC, 24 hrs
# Protocol: Time-kill assay for BP-ciprofloxacin conjugate against S. aureus strain ATCC-6538 (MSSA) and clinical MRSA strain MR4-CIPS: This experiment was performed in the same manner as described previously under the subheading: “Evaluation of MIC of tested compounds against planktonic forms of clinical staphylococcal strains analyzed”, but absorbance assays (at 580 nm wavelength) were taken in hour: 0, 1, 2, 4, 8, 16, 24.
# [3] = test system: planktonic S. aureus clinical osteomyelitis strains (MSSA and MRSA); experiment: MIC by microdilution against planktonic clinical S. aureus strains; type: cell-based, Staphylococcus aureus; details: for antimicrobial activity / MIC against planktonic S. aureus (in words): microdilution, 24 h
# Protocol: (§1) Subsequently, the plate was incubated for 24 h/37° C. in a shaker to obtain optimal conditions for microbial growth and to prevent bacteria from forming biofilms. After incubation, the absorbance was measured once again. The following control samples were established: negative control sample one: sterile medium without microbes; negative control sample two: sterile medium without microbes implemented with DMSO (dimethyl sulfoxide, Sigma-Aldritch) to final concentration of 1% (v/v); positive control sample one: medium+microbes with no compound tested; positive control sample two: medium+microbes with no compound tested but implemented with DMSO to final concentration of 1% (v/v). […] To assess relative number of cells, the following calculations were performed. […] Next, the relative number of cells subjected to incubation with tested compounds were counted as follows: […].
# as §1, with “Evaluation of the MIC of tested compounds against planktonic forms of clinical staphylococcal strains analyzed: To assess the impact of parent antibiotic and conjugates on microbial growth, 100 μl of microbial solutions of density 1×10^5 CFU/ml were placed into wells of 96-well test plates together with appropriate concentrations of tested compounds. […] Subsequently,” for “Subsequently,”, “plates were” for “the plate was”, “hrs/37°” for “h/37°”, “Sigma-Aldrich)” for “Sigma-Aldritch)”
# The occurrence of opacification or lack of opacification of media was proof of pathogen growth or lack of growth, respectively. Additionally, bacterial solutions were cultured on the appropriate stable medium. Growth or lack of growth of bacterial colonies together with above-mentioned results from liquid cultures served as confirmation of results obtained spectrophotometrically.
# [4] = test system: biofilms of S. aureus strain ATCC-6538; experiment: Preformed biofilms on polystyrene, S. aureus; type: cell-based, Staphylococcus aureus
# Protocol: Antimicrobial susceptibility testing of BP-ciprofloxacin against preformed biofilms of S. aureus strain ATCC-6538 and P. aeruginosa strain ATCC-15442: Strains cultured on appropriate agar plates (Columbia agar plate for S. aureus; MacConkey agar plate for P. aeruginosa) were transferred to liquid microbiological media and incubated for 24 h/37° C. under aerobic conditions. After incubation, strains were diluted to the density of 1 MF. The microbial dilutions were introduced to wells of 24-well plates containing HA discs as a substrate, or simply to polystyrene wells where the bottom surface of the wells served as the substrate for biofilm development. Strains were incubated at 37° C. for 4 hrs. Next, the microbe-containing solutions were removed from the wells. The surfaces, HA discs and polystyrene plates, were gently rinsed to leave adhered cells and to remove planktonic or loosely-bound microbes. Surfaces prepared in this manner were immersed in fresh TSB medium containing 0.24-125 mg/L of BP-ciprofloxacin conjugate. After 24 hrs of incubation at 37° C. the surfaces were rinsed using physiological saline solution and transferred to 1 mL of 0.5% saponin (Sigma-Aldrich, St Louis, MO). The surfaces were vortex-mixed vigorously for 1 minute to detach cells. Subsequently, all microbial suspensions were diluted 10 to 10^9 times. Each dilution ([…]) was cultured on the appropriate stable medium (MacConkey, Columbia for P. aeruginosa and S. aureus, respectively) and incubated at 37-C for 24 hours. After this time, the microbial colonies were counted and the number of cells forming biofilm was assessed. […]
# Antimicrobial susceptibility testing of 6 against preformed biofilms of S. aureus strain ATCC-6538 and P. aeruginosa strain ATCC-15442: Strains cultured on appropriate agar plates (Columbia agar plate for S. aureus; MacConkey agar plate for P. aeruginosa) were transferred to liquid microbiological media and incubated for 24 hrs/37° C. under aerobic conditions. […] After this time, the microbial colonies were counted and the number of cells forming biofilm was assessed. […]
# [5] = 24 h
# Protocol: Next, solutions were left for 24 h/37° C./shaking. After incubation, absorbance was measured once again. To assess for degradation of conjugate, values of absorbance taken at 0 hr and 24 hrs were compared.
smiles,measurement,setting,value
"O=C(O)c1cn(C2CC2)c2cc(N3CCN(C(=O)Oc4ccc(CC(P(=O)(O)O)P(=O)(O)O)cc4)CC3)c(F)cc2c1=O [Compound 6, 1-cyclopropyl-7-(4-((4-(2,2-diphosphonoethyl)phenoxy)carbonyl)piperazin-1-yl)-6-fluoro-4-oxo-1,4-dihydroquinoline-3-carboxylic acid]",activity against Aa biofilm on HA (in words),[1],effective antimicrobial activity
same,concentration with effective antimicrobial profile,[1]; strain D7S-5 grown on HA,> 15 µg/mL
same,time-kill profile (in words),[2],sustained bactericidal activity over 24 hrs
same,time-kill profile (in words),[2]; listed as BP-ciprofloxacin,strong bactericidal activity at 1 hr and up to 24 hrs
same,time to bactericidal activity / evident prevention of growth,[2]; at half the MIC,2 h
same,growth inhibition,"[2]; at half the MIC, up to/after 24 hrs, versus controls",50%
same,time to bactericidal activity / evident prevention of growth,"[2]; at half the MIC, listed as conjugate",≤ 1 h
same,time to bactericidal activity,[2]; at the established MIC,≤ 1 h
same,prevention of bacterial growth,"[2]; at the established MIC, up to 24 hrs",100%
same,MIC compared with mean bactericidal concentration (MBC),[3]; AST data,equivalent to their mean bactericidal concentrations
same,antimicrobial activity / MIC against planktonic S. aureus (in words),[3],effective bactericidal activity
same,antimicrobial activity / MIC against planktonic S. aureus (in words),[3]; listed as BCC,retains significant bactericidal activity
same,antimicrobial activity / MIC against planktonic S. aureus (in words),[3]; listed as BP-ciprofloxacin,slightly greater concentrations of conjugate required to reach MIC than ciprofloxacin alone
same,minimal biofilm inhibitory concentration (MBIC50),[4]; polystyrene substrate (Example 1),15.6 to 31.2 µg/mL
same,minimal biofilm inhibitory concentration (MBIC50),[4]; polystyrene substrate (Example 5),15.6 to 31.2 µg/mL
same,MBIC90,"[4]; polystyrene substrate, tested range of concentrations",no MBIC90 was observed for either pathogen
same,stability in trypticase soy broth microbiological media,[5],no degradation is observed after 24 hrs

# Source: patent US12624057B2, “Bisphosphonate quinolone conjugates and uses thereof” (BIOVINC, LLC, priority 2016, dated 2026)
